Results on six compounds are retold here after US4649147A, “Treating elastin degradation with 1-(alkenoyl)azacycloalkyl carboxylic acids and derivatives” (G. D. Searle & Co., priority 1985, dated 1987).

In test [1] the target is mammalian prolyl-4-hydroxylase (Homo sapiens, UniProt P13674). Put plainly: In vitro prolyl-4-hydroxylase inhibition. It is filed as biochemical. To be noted: purified mammalian enzyme. An excerpt: Fibrosis is a connective tissue disease characterized by overaccumulation of extracellular fibrous matrix components, particularly collagen. Since prolyl hydroxylation is required for active secretion and thermal stability of collagen, fibrosis could be treated by inhibitors of prolyl-4-hydroxylase, such as the compounds of this invention. See G. C. Fuller, J. Med. Chem., 24, 651-658 (1981). The following procedure is used to test the compounds in vitro for prolyl-4-hydroxylase inhibition.
mammalian prolyl-4-hydroxylase, sequence (P13674 18-534): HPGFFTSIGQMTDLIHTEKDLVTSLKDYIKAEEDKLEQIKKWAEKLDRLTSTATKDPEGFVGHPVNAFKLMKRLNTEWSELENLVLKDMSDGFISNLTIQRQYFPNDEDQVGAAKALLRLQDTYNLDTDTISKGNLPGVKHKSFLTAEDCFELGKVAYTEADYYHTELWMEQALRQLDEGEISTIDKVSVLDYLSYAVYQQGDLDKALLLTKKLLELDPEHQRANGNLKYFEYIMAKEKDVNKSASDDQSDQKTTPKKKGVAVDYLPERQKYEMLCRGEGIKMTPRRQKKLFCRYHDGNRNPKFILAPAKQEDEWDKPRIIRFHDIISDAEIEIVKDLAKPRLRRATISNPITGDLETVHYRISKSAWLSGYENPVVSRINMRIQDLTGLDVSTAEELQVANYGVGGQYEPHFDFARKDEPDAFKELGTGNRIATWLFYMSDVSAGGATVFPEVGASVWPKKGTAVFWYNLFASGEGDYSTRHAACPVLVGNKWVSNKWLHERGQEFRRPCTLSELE
mammalian prolyl-4-hydroxylase, sequence (P07237 18-508 partner): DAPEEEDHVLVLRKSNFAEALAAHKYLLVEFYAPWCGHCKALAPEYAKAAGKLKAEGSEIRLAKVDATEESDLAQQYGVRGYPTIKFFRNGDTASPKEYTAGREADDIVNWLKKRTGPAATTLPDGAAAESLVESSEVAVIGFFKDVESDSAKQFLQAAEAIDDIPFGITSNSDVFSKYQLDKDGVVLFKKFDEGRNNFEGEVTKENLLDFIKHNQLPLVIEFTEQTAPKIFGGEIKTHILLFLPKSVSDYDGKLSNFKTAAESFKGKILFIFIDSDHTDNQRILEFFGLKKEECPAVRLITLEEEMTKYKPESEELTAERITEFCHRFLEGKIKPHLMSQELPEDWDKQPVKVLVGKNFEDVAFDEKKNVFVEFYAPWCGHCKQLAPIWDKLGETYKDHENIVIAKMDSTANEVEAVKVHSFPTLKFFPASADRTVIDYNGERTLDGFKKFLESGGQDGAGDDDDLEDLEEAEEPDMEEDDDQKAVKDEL
Purified mammalian prolyl-4-hydroxylase [EC 1.14.11.2:prolyl-glycyl-peptide, 2-oxyglutarate: oxidoreductase] is incubated with substrates (i.e., native unhydroxylated collagen of either 60,000 molecular weight, Km 10^-8 M; or 90,000 molecular weight, Km 10^-11 M), α-ketoglutarate, oxygen, and enzyme cofactors, with or without the test compounds. End-point is determined by measuring release of tritiated water during the hydroxylation of H^3 -peptidyl proline or release of ^14 CO2 formed from the coupled decarboxylation of ^14 C-α-ketoglutarate. Data are reported as percent inhibition with test compound at a given concentration relative to the control assays without test compound.

A further test addresses T1, human leukocyte elastase (Homo sapiens, UniProt P08246).
T1 sequence (P08246 30-267): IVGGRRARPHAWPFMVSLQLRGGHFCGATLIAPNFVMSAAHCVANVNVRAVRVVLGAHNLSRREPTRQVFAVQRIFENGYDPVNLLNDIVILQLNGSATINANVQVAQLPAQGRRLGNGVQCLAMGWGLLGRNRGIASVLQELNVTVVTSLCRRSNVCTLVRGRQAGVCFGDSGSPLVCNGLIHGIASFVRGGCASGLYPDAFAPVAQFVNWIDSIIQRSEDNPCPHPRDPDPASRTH
Put plainly: Inhibition of hydrolysis of methoxysuccinyl-ala-ala-pro-val-nitroanilide by human leukocyte elastase. It is filed as biochemical. As to conditions: for pIC50: human leukocyte elastase, MSN substrate. From the text:
The compounds useful in practicing the method of the invention are inhibitors of leucocyte elastase and cathepsin G. Since elastase is involved in the breakdown of elastin and subsequently involved in a number of disease states, a compound which blocks the action of elastase will be useful in the management, treatment and prevention of such diseases. […] Nakajima, K., et al., J. Biol. Chem., 254, 4027 (1979). This is useful in measuring inhibition of elastase because the hydrolysis of MSN is easily quantitated by measuring the release of p-nitroaniline spectrophotometrically. Therefore, the degree of elastase inhibition can be readily measured by noting the rate of inhibition of the hydrolysis of MSN. The compounds of the invention are therefore tested in vitro as follows. The rate of hydrolysis of methoxysuccinyl-ala-ala-pro-val-nitroanalide by human leukocyte elastase is monitored spectrophotometrically in the presence and absence of test compound. The inhibition of the enzymatic reaction by 20% or more at a given concentration of test compound is taken as positive inhibition of elastase. IC50 values are then determined.

For test [2], the system named is bleomycin-induced lung fibrosis. Description: Bleomycin-induced lung fibrosis in male syrian hamsters. It is filed as in vivo, syrian hamster. To be noted: 100 mg/kg, day 21 relative to untreated animals. An excerpt:
The procedure described by Kelley et al., J. Lab. Clin. Med., 96, 954-964 (1980), is used to test the compounds in vivo for activity against bleomycin-induced lung fibrosis in male syrian hamsters. […] Activities are reported as percent inhibitions at day 21 relative to untreated animals.

Structures are written as SMILES. pIC50: −log10 of the molar value.

For the compound `CCCCCCCC/C=C\CCCCCCCC(=O)N1CCC(C(=O)O)CC1` [Example 3, 1-(1-oxo-9Z-octadecenyl)-4-piperidinecarboxylic acid], the pIC50 in test [1] is 5.05; against human leukocyte elastase, 5.34.

In the case of `CCCCCCCC/C=C\CCCCCCCC(=O)N1CCC[C@H]1C(=O)O` [Example 1, 1-(1-oxo-9Z-octadecenyl)proline], the pIC50 was 5.36 in test [1] and 5.11 against human leukocyte elastase.

With `CCCCCCCC/C=C\CCCCCCCC(=O)N1CCC[C@H]1C(=O)OC` [Example 6, 1-(1-oxo-9Z-octadecenyl)proline methyl ester], in test [2], the “Bleomycin-induced Fibrosis, % Inhib. of Hydroxyproline” value came out at 30.1% and the “Bleomycin-induced Fibrosis, % Inhib. of Lung wt./body wt.” value came out at 33.0%.

In turn, `CCCCCCCC/C=C\CCCCCCCC(=O)N1CCC(C(=O)OCC)(c2ccccc2)CC1` [Example 4, ethyl 1-(1-oxo-9Z-octadecenyl)-4-phenyl-4-piperidinecarboxylate] had an inhibition against elastase at human leukocyte elastase (at 20 mcM) of 22%.

As to `CCCCCCCC/C=C\CCCCCCCC(=O)N1CCCC(C(=O)O)C1` (stereo not shown) [Example 2, 1-(1-oxo-9Z-ocadecenyl)-3-piperidinecarboxylic acid], the pIC50 in test [1] is 5.23; against human leukocyte elastase, 5.47.

On human leukocyte elastase, `CCCCCCCC/C=C\CCCCCCCC(=O)N1CCC(C(=O)O)(c2ccccc2)CC1` [Example 5, 1-(1-oxo-9Z-octadecenyl)-4-phenyl-4-piperidinecarboxylic acid] showed a pIC50 of 5.92.

What is called pIC50 is −log10 of the IC50, conventionally taken in molar units. Higher therefore signals a small IC50.
